Laboratory results as given in article PMC6345492, “Thioguanine-based DENV-2 NS2B/NS3 protease inhibitors: Virtual screening, synthesis, biological evaluation and molecular modelling” (PLoS ONE, 2019).
Where two headings read alike, the source gives them in different places.

Experiments:
[1] = biological target: T1, DENV-2 NS2B/NS3pro (Dengue virus type 2, UniProt P14340); assay: DENV-2 NS2B/NS3pro protease inhibition assay (fluorogenic Boc-GRR-MCA substrate); type: biochemical; conditions: for IC50: 3 μM protease, 25 μM substrate
T1 construct: pQE30.CF40.gly(T).NS3pro expression plasmid; 6x-His (N); glycine linker (gly(T)) joining CF40 to NS3pro (C); made in house; host or cells: Escherichia coli strain XL1-Blue
Procedure: The DENV-2 NS2B/NS3pro expression was carried out according to the established method by Yusof et al., (2000) with minor modifications according to published articles. The plasmid encoding the NS2B/NS3 protease sequence from DENV-2 was transformed into Escherichia coli strain XL1-Blue transformed with pQE30.CF40.gly(T).NS3pro expression plasmid were grown in LB medium containing 10 μg/ml ampicillin at 37°C until the OD600 reached 0.6. First, the cells were incubated at 37°C, 200 rpm until OD600 reached ~0.6. One ml of isopropyl-β-D-thiogalactopyranoside (0.5 mM in LB medium) was added to the bacterial cells for 2 hours to induce protein expression. Expression of the recombinant protein was induced by the addition of […] IPTG and the culture was incubated for 2 hours.
The cells were harvested by centrifugation at 8000 rpm (Sorvall RC-5B Refrigerated Superspeed centrifuge) for 15 minutes at […]. The cell pellets were thawed (1 g) and resuspended in lysis buffer (5 mL) followed by mixing them using vortex until milky. For purification, cells were lysed by sonication conducting (6 times 15-second pulse, duty cycle 10%, output control no 3) using Ultrasonic Cell Disruptor, Branson Sonifier 450, Germany. The lysate was incubated on ice for 1 hour and then centrifuged at 8000 rpm for 1 hour at 4°C. The soluble 6x-His-NS2B/NS3protease in its native form was filtered ([…]), batch-bound to 2 x 2 ml Ni^2+-NTA (nickel-nitrilotriacetic acid) resin (pre-equilibrated with column buffer) and incubated overnight at 4°C. The resin was cleaned up from the unbound fraction by centrifugation and the resin with bound protein was collected and loaded into columns (Bio-Rad; 1 x 3 cm). The gradient technique columns were washed extensively with 3 x 15 ml of wash buffer and further eluted with 10 ml of elution buffer for each column while being monitored using Bio-Rad Bradford protein assay. The purified protein was then analysed with 12% SDS-PAGE, pooled and stored at -80°C for further use in the dengue protease activity and inhibition studies. The dengue protease activity assay was developed as previously described with a slight modification. Briefly, the assay system comprised of 200 mM Tris-HCl (pH 8.5) buffer, DENV-2 NS2B/NS3pro and Boc-GRR-MCA as the substrate. Protease optimum assay was executed to ascertain maximum protease activity at constant concentration of the substrate (25 μM). The protease concentrations were varied within 0–10 μM. The 7-Amino-4-methylcoumarin (AMC) produced was measured as fluorescence intensity at λexcitation of 340 nm and λemission of 440 nm by using ELISA modulus microplate reader.
The compounds were also checked for its requirement to pass the pan assay interference compounds (PAINS) (http://cbligand.org/PAINS/) before tested for their inhibition activities against DENV-2 NS2B/NS3pro at a range of concentrations (0 to 300 μg/mL). […] The concentration of the protease being used was 3 μM initially incubated with the compound for 10 minutes at 37°C with 200 rpm of rotation. Subsequently, 25 μM of the substrate was added and the incubation was further prolonged for 60 minutes. The fluorescence intensity at 340/ 440 nm was measured as the AMC byproduct was released upon the peptide substrate cleavage by the protease. The experiments were triplicated and Panduratin A was used as the positive control.

[2] = biological target: T1, DENV-2 NS2B/NS3pro; set-up: method as in PMID 16621533; conditions: competitive inhibition; cited from earlier work
[3] = TG derivatives, Table 2, read-out: IC50
[4] = six newly designed compounds, Table 3, read-out: IC50

T1 sequence (P14340 1398-1437): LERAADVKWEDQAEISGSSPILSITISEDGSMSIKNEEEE
T1 sequence (P14340 1476-1653): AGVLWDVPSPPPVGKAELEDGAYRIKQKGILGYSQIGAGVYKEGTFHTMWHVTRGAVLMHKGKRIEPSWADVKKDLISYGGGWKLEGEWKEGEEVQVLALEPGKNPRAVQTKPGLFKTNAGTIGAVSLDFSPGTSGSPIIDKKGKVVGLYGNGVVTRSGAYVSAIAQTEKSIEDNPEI

Question: For COc1cccc(S(=O)(=O)Nc2nc(S)c3nc[nH]c3n2)c1 [Compound 4], which IC50 [1, 3] is on record?
Answer: 68 µM

Question: With COc1ccc(S(=O)(=O)Nc2nc(S)c3nc[nH]c3n2)cc1 [Compound 5] as the molecule, how does the IC50 [1, 3] read?
Answer: 55 µM

Question: For CCC(=O)Nc1nc(SC(=O)CC)c2nc[nH]c2n1 [Compound 16], which IC50 [1, 4] is on record?
Answer: 97 µM

Question: Which IC50 [1, 4] does the source give for CC(C)C(=O)Nc1nc(SC(=O)C(C)C)c2nc[nH]c2n1 [Compound 17] here?
Answer: 80 µM

Question: Which IC50 [1, 4] does the source give for CCCCC(=O)Nc1nc(SC(=O)CCCC)c2nc[nH]c2n1 [Compound 18] here?
Answer: 0.38 µM

Question: For CCCCC(=O)Nc1nc(SCc2ccccc2)c2nc[nH]c2n1 [Compound 19], which IC50 [1, 4] is on record?
Answer: 54 µM

Question: Which IC50 [1, 4] does the source give for CC(C)Cn1cnc2c(SCc3cccc4ccccc34)nc(N)nc21 [Compound 20] here?
Answer: 258 µM

Question: For CCCCC(=O)Nc1nc(SCc2ccccc2)c2ncn(Cc3ccccc3)c2n1 [Compound 21], which IC50 [1, 4] is on record?
Answer: 16 µM

Question: Which Ki [2] does the source give for COc1cc(O)c(C(=O)[C@@H]2[C@H](CC=C(C)C)C(C)=CC[C@H]2c2ccccc2)c(O)c1 [Panduratin A, panduratin A, reference compound] here?
Answer: 25 µM

Question: What about the IC50 ([1]; NCI diversity set hits, read-out: Experimental IC50) of the same molecule?
Answer: 56 µM

Question: For Nc1nc2nc[nH]c2c(=S)[nH]1 [TG, thioguanine], which inhibition at 200 µg/mL [1] is on record?
Answer: 56%

Question: And the IC50 [1, 3]?
Answer: 753 µM
